This passage reports RP-LC retention time results from the METLIN SMRT retention time set (Domingo-Almenara et al. 2019).

This series in a line: gradient 5% acetonitrile 3 min, to 50% in 2 min, to 85% in 15 min, held 3 min, 100 µL/min. Particulars: column: Zorbax Extend-C18 2.1 x 50 mm; eluents: water / acetonitrile, 0.1% formic acid. The procedure, abridged: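 Mixtures of ~100 pure standards were chromatographed on a Zorbax Extend-C18 column (2.1 × 50 mm, 1.8 μm) at 100 μL/min using water and acetonitrile, each with 0.1% formic acid. Detection used a quadrupole time-of-flight mass spectrometer in positive and negative ionization mode, and data collection spanned 3 months. Retention time was obtained from adduct peaks picked computationally and each checked manually.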
Take `COc1ccc(-c2nc(-c3ccc4ncn(C(C)C)c4c3)no2)c(OC)c1`: the RP-LC retention time amounted to 729 s.
To `CC(NC(=O)c1csc(-c2ccc(N3CCCC3)nc2)n1)c1ccccn1` (centres undefined) belongs 573 s; to `CCCN(CC1CCOC1)C(=O)Nc1ccc(C(F)(F)F)cc1` (centres undefined), 908 s; to `CCOC(=O)c1[nH]c(C)c(CCC(=O)Nc2ccc3c(c2)OCO3)c1C`, 819 s.
The same measure for `CCc1ccc(NC(=O)N2CCC(CC(=O)N3CCCCC3)CC2)cc1`: 833 s; for `COc1ccccc1CNC(=O)C1CCN(S(C)(=O)=O)c2cc(Cl)ccc2O1` (centres undefined): 910 s.
As to `Fc1ccc(-c2nc(-c3ccc(-n4ccnc4)nc3)no2)cc1`, the RP-LC retention time amounted to 732 s.
To `Cc1ccc(-c2cc3c4nnc(SCC(=O)Nc5ccc(F)cc5Cl)n4ccn3n2)cc1C` belongs 1010 s.
The same measure for `CCCNC(=O)N1CCN(Cc2nc3cc(-c4ccccc4)ccc3o2)CC1`: 722 s; for `CCN(CC)S(=O)(=O)c1ccc2c(c1)CC(C(=O)NCCN1CCCCC1)N2C(C)=O` (centres undefined): 610 s; for `CCOC(=O)N1CCN(C(=O)Cc2c(C)nn(-c3nc(-c4ccc(Cl)cc4)cs3)c2C)CC1`: 1110 s.
The same measure for `COc1ccccc1C(=O)NCCc1c[nH]c2ccc(F)cc12`: 842 s; for `CCCc1nc(-c2ccccc2)oc1CC(=O)Nc1cccc(Cl)c1C`: 1080 s.
Compound `Cn1ncc2c(N3CCSCC3)nc(C(=O)NCCc3cccs3)nc21` registered an RP-LC retention time of 833 s.
To `CC1CN(Cc2nc3c(c(=O)n(C)c(=O)n3C)n2Cc2ccccc2Cl)CC(C)O1` (centres undefined) belongs 751 s; to `COc1ccc(-n2ccc(=O)c(-c3nc(-c4ccc(OC)c(OC)c4)no3)n2)cc1`, 788 s.
The same measure for `COc1ccccc1-c1nc(Cn2nnc(-c3nc(-c4ccccc4)no3)c2C)c(C)o1`: 1140 s; for `CSc1cccc(NC(=O)C2CCCN(C(=O)Cc3cccc4ccccc34)C2)c1` (centres undefined): 1040 s.
`Cc1ncc2c(n1)C[C@@H]1CC[C@H]2N1C(=O)NCc1ccccc1` returned an RP-LC retention time of 642 s.
`Cc1nn(C)c(C)c1S(=O)(=O)N1CCCC(Cc2nncn2-c2ccccc2)C1` (centres undefined) showed an RP-LC retention time of 604 s.
In turn, `COc1cccc(-c2ccc(=O)n(CCc3nc(-c4ccc5c(c4)OCO5)no3)n2)c1` had an RP-LC retention time of 804 s.
Consider `COc1ccc(C(=O)Nc2c(-c3ccc(F)cc3)nc3ccccn23)cc1OC`, for which the RP-LC retention time came out at 625 s.
To `CCc1c(C(=O)O)nnn1-c1ccc(Cl)c(C)c1` belongs 809 s.
Consider `O=P(Oc1ccccc1)(Oc1ccccc1)c1ccccc1`, for which the RP-LC retention time was found to be 1070 s.
To `CCCn1cc(CCNS(=O)(=O)c2cccc(OC)c2)c2cccnc21` belongs 837 s.
To `CCCn1cc(S(=O)(=O)NCc2cccc(Cl)c2)c2cccnc21` belongs 950 s; to `CN1C(=O)c2cc(S(=O)(=O)Nc3ccc(F)cc3)ccc2Oc2cccnc21`, 906 s; to `O=C(Nc1cccc(Cl)c1F)c1cnc(-c2ccccc2)nc1-c1ccncc1`, 964 s.
To `O=Cc1ccc(O)c2ncccc12` belongs 658 s.
In the case of `Cc1oc(C2CCC2)nc1C(=O)NCc1cc(F)ccc1F`, the RP-LC retention time came out at 1030 s.
The compound `O=C(NC1CCCC1)C1CCN(S(=O)(=O)c2cc(C(=O)N3CCOCC3)cs2)CC1` gave an RP-LC retention time of 682 s.
To `COc1ccc(C(=O)Nc2nnc(SCc3nnc(-c4ccccc4)o3)s2)cc1OC` belongs 830 s.
Compound `COc1ccc(C2CC(=O)c3cnn(-c4nc5ccccc5[nH]4)c3C2)c(OC)c1` (centres undefined) came in with an RP-LC retention time of 649 s.
To `CCN1C(=O)c2cc(C(=O)NCc3ccccc3F)nn2CC1(C)C(=O)NC1CCCC1` (centres undefined) belongs 659 s; to `CC(C)(C)C(=O)N[C@H](Cc1ccccc1)C(=O)NCc1cscn1`, 714 s.
The same measure for `Cc1ccc(NC(=O)Cn2nc3c(Oc4cccc(F)c4)nccn3c2=O)cc1`: 880 s.
To `Brc1ccccc1Cc1nc(-c2ccn3cnnc3c2)no1` belongs 806 s; to `Cc1ccc(C)c(NC(=O)C2CCCN(c3nc4c(s3)c(C)nn4-c3cccc(F)c3)C2)c1` (centres undefined), 1280 s.
As to `Cc1ccc(-c2csc(Cc3nc(-c4ccccc4Cl)no3)n2)cc1`, the RP-LC retention time came out at 1280 s.
`O=C(NCc1csc(C2CCN(S(=O)(=O)c3ccccc3F)CC2)n1)C1CCC1`: the RP-LC retention time is 811 s.
The same measure for `CCCN1CCN(C(=O)C2CCN(c3nc4cccnc4s3)CC2)CC1`: 574 s; for `CC(C)NC(=O)C1CCN(c2nc3ccc(-c4cccnc4)nc3s2)CC1`: 605 s; for `C=CCN1C(=O)COc2ccc(-c3nc(NC(=O)c4ccc(C)cc4)sc3C)cc21`: 1100 s.
For the compound `O=C(Cc1c[nH]c2ccccc12)N1CCC(NS(=O)(=O)c2ccc(F)cc2)CC1`, the RP-LC retention time came to 781 s.
To `COc1cccc(C(O)CN2CCN(c3ccccc3)CC2)c1` (centres undefined) belongs 634 s.
`CC(C)n1c(=O)c(Nc2cccc(Cl)c2)nc2ccncc21` showed an RP-LC retention time of 649 s.
The same measure for `CCOc1ccccc1-c1noc(CN2C(=O)COc3ccc(C)cc32)n1`: 1030 s; for `O=C(Cn1nc2c(cc1=O)CCCC2)Nc1ccc(N2CCCS2(=O)=O)cc1`: 668 s; for `O=C(c1cccc(N2CCCS2(=O)=O)c1)N1CCN(c2ccccn2)CC1`: 578 s.
The same measure for `COc1ccc(C2C(C(=O)NCCN(C)C)c3cc(OC)c(OC)cc3C(=O)N2C)cc1OC` (centres undefined): 589 s.
To `Cc1ccc(F)c(NS(=O)(=O)c2cc(-c3[nH]ncc3C(=O)N3CCOCC3)oc2C)c1` belongs 678 s; to `O=C(Nc1ccc(-c2nnc3n2CCCC3)cc1)C1CCCC1`, 648 s.
With `COc1ccc(CC(=O)Nc2nc(S(=O)(=O)Cc3ccccc3)ns2)cc1OC`, the RP-LC retention time was 775 s.
For `CCCn1c(C)cnc1C1CN(C(=O)C(C)C)C1`, the RP-LC retention time came to 553 s.
Turning to `Cc1cc(-c2nnc(-c3ccccc3)o2)c(C)n1CC(=O)N1CCN(C2CCCCC2)CC1`, the RP-LC retention time was 666 s.
Take `COc1ccc(-c2noc(C3CCCN3C(=O)Nc3cc(C)ccc3C)n2)cc1` (centres undefined): the RP-LC retention time came to 1020 s.
For the compound `Cc1nc2sccn2c1-c1nnc(SCc2ccc([N+](=O)[O-])cc2)n1C`, the RP-LC retention time amounted to 626 s.
To `COc1ccccc1N1CCN(c2nccc(-n3nc(C)cc3C)n2)CC1` belongs 1010 s; to `CCCN1C(=O)COc2ccc(-c3noc(Cc4ccc(OC)cc4)n3)cc21`, 1080 s.
